Earlier results in patent publication US8759032B2, “Genetically engineered strain WSJ-IA for producing isovaleryl spiramycin I” (Shen Yang Tonglian Group Co., Ltd., priority 2010, dated 2014).

Conditions: single components; no significant differences in their activities; patent application 201010119745.1

Compound: Isovaleryl spiramycin II
- antibiotic activities: all have antibiotic activities

Compound: CCC(=O)O[C@@H]1CC(=O)O[C@H](C)C/C=C/C=C/[C@H](O[C@H]2CC[C@H](N(C)C)[C@@H](C)O2)[C@H](C)C[C@H](CC=O)[C@H](O[C@@H]2O[C@H](C)[C@@H](O[C@H]3C[C@@](C)(O)[C@@H](OC(=O)CC(C)C)[C@H](C)O3)[C@H](N(C)C)[C@H]2O)[C@H]1OC [Isovaleryl spiramycin III]
- antibiotic activities: all have antibiotic activities

Compound: CO[C@@H]1[C@@H](O[C@@H]2O[C@H](C)[C@@H](O[C@H]3C[C@@](C)(O)[C@@H](OC(=O)CC(C)C)[C@H](C)O3)[C@H](N(C)C)[C@H]2O)[C@@H](CC=O)C[C@@H](C)[C@@H](O[C@H]2CC[C@H](N(C)C)[C@@H](C)O2)/C=C/C=C/C[C@@H](C)OC(=O)C[C@H]1O [Isovaleryl spiramycin I]
- antibiotic activities: all have antibiotic activities
